In US20260083704A1, “LXR MODULATORS WITH BICYCLIC CORE MOIETY FOR TREATING DYSLIPIDEMIAS” (OrsoBio, Inc., priority 2022, published 2026):
pEC50: −log10 of the molar value.

Experiments:
[1] = target: T1, GST-LXRβ ligand-binding domain (Homo sapiens, UniProt P55055); test: TR-FRETβ activity assay (NCoA3 coactivator peptide recruitment); format: biochemical; conditions: 1 μM 24(S)-25-epoxycholesterol prestimulation
T1 construct: amino acids 156-461; NP009052; made in house; host or cells: E. coli
T1 sequence (P55055 156-460 limits assumed): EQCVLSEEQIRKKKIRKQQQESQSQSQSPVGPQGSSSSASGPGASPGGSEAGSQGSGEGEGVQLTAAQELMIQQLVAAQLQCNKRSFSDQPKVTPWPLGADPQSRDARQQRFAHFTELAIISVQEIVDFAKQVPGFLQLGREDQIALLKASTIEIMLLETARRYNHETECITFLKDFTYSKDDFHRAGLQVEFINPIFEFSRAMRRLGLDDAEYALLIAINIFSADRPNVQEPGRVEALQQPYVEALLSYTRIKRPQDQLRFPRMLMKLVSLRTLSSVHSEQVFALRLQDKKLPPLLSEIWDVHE
Outline: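 E. coli-expressed GST-LXRβ LBD (aa 156-461, 76 nM) with biotinylated NCoA3 peptide (400 nM) in Tris/HCl pH 6.8 containing 1 μM 24(S)-25-epoxycholesterol agonist. Compounds tested at 50 μM down to 0.002 μM in triplicate. TR-FRET (Tb cryptate/XL665, ex 340, em 615/665 nm) read after 1 h at 4° C.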

LXRβ = target: T2, LXRβ (Homo sapiens, UniProt P55055); test: LXR Gal4 reporter transient transfection assay (mammalian two-hybrid, HEK293), LXRβ; format: cell-based; set-up: LXRβ (amino acids 156-461); expressed in transfected cells; host or cells: HEK293; conditions: full length (FL) LXRβ, HEK293; read-out: FL-M2H Gal4β
T2 sequence (P55055 1-460): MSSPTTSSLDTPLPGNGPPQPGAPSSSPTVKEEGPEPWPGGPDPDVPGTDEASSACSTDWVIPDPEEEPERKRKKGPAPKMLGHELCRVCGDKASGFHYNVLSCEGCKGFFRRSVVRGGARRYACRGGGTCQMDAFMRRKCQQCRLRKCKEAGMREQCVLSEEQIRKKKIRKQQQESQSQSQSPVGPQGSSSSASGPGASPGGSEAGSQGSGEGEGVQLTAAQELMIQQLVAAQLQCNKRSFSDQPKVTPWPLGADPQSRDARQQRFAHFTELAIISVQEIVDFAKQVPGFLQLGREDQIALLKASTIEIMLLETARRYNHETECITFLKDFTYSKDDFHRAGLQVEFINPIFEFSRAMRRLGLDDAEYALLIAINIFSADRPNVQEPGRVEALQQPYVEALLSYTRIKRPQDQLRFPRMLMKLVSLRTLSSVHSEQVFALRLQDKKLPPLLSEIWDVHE
Outline: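 HEK293 cells transiently co-transfected with full-length or LBD LXRα/LXRβ fused to NFkB activation domain, GAL4-DBD-fused SRC1 or NCoR cofactor domain, GAL4-responsive firefly luciferase reporter and Renilla control. Compound added 4 h post-transfection (≤0.2% DMSO), incubated 16 h; firefly and Renilla luminescence read sequentially.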

## Cc1ccc(S(=O)(=O)n2c(-c3cccc(-c4ccc(C(=O)O)cc4Cl)c3)c(-c3c(C)cccc3C#N)c3cc(F)ccc32)cc1 [11/6]
[1]
  pEC50: > 7.00
LXRβ
  pEC50: > 7.00

## N#Cc1sccc1-c1c(-c2cccc(-c3cc(F)c(C(=O)O)cc3Cl)c2)n(S(=O)(=O)c2ccc(CF)cc2)c2ccc(F)cc12 [11/7]
[1]
  pEC50: > 7.00
LXRβ
  pEC50: > 7.00

## N#Cc1sccc1-c1c(-c2cccc(-c3cc(F)c(C(=O)O)cc3Cl)c2)n(S(=O)(=O)c2ccc(C(F)F)cc2)c2ccc(F)cc12 [11/8]
[1]
  pEC50: > 7.00
LXRβ
  pEC50: > 7.00

## N#Cc1scnc1-c1c(-c2cccc(-c3cc(F)c(C(=O)O)cc3Cl)c2)n(S(=O)(=O)c2ccc(C(F)F)cc2)c2ccc(F)cc12 [11/9]
[1]
  pEC50: > 7.00
LXRβ
  pEC50: > 7.00

## N#Cc1ccncc1-c1c(-c2cccc(-c3cc(F)c(C(=O)O)cc3Cl)c2)n(S(=O)(=O)c2ccc(C(F)F)cc2)c2ccc(F)cc12 [11/10]
[1]
  pEC50: > 7.00
LXRβ
  pEC50: > 7.00

## Cc1cccc(C)c1-c1c(-c2cccc(-c3ccc(C(=O)O)cc3Cl)c2)n(S(=O)(=O)c2ccc(C(F)F)cc2)c2ccc(F)cc12 [11/14]
[1]
  pEC50: > 7.00
LXRβ
  pEC50: > 7.00

## O=C(O)c1ccc(-c2cccc(-c3c(-c4c(C(F)F)cccc4C(F)F)c4cc(F)ccc4n3S(=O)(=O)c3ccc(C(F)F)cc3)c2)c(Cl)c1 [11/15]
[1]
  pEC50: > 7.00
LXRβ
  pEC50: > 7.00

## N#Cc1sccc1-c1c(-c2cccc(-c3ccc(C(=O)O)cc3Cl)c2)n(S(=O)(=O)c2ccc(F)cc2)c2ccc(F)cc12 [11/18]
[1]
  pEC50: 6.00 to 7.00
LXRβ
  pEC50: > 7.00

## Cc1ccc(S(=O)(=O)n2c(-c3cccc(-c4ccc(C(=O)O)cc4Cl)c3)c(-c3ccsc3C#N)c3cc(F)ccc32)cc1F [11/19]
[1]
  pEC50: 6.00 to 7.00
LXRβ
  pEC50: > 7.00

## N#Cc1ccc(S(=O)(=O)n2c(-c3cccc(-c4ccc(C(=O)O)cc4Cl)c3)c(-c3ccsc3C#N)c3cc(F)ccc32)cc1 [11/20]
[1]
  pEC50: 6.00 to 7.00
LXRβ
  pEC50: > 7.00

## O=C(O)c1ccc(-c2cccc(-c3c(-c4ccsc4C(F)F)c4cc(F)ccc4n3S(=O)(=O)c3ccc(Cl)cc3)c2)c(Cl)c1 [11/21]
[1]
  pEC50: > 7.00
LXRβ
  pEC50: > 7.00

## O=C(O)c1ccc(-c2cccc(-c3c(-c4ccsc4C(F)(F)F)c4cc(F)ccc4n3S(=O)(=O)c3ccc(C(F)F)cc3)c2)c(Cl)c1 [11/22]
[1]
  pEC50: > 7.00
LXRβ
  pEC50: > 7.00

## Cc1n[nH]c(C)c1-c1c(-c2cccc(-c3ccc(C(=O)O)cc3Cl)c2)n(S(=O)(=O)c2ccc(C(F)F)cc2)c2ccc(F)cc12 [11/24]
[1]
  pEC50: 6.00 to 7.00
LXRβ
  pEC50: 6.00 to 7.00

## O=C(O)c1ccc(-c2cccc(-c3c(-c4cn[nH]c4C(F)(F)F)c4cc(F)ccc4n3S(=O)(=O)c3ccc(C(F)F)cc3)c2)c(Cl)c1 [11/25]
[1]
  pEC50: 6.00 to 7.00
LXRβ
  pEC50: > 7.00

## N#Cc1ccccc1-c1c(-c2cccc(-c3ccc(C(=O)O)c4c3OCO4)c2)n(S(=O)(=O)c2ccc(C(F)F)cc2)c2ccc(F)cc12 [11/28]
[1]
  pEC50: > 7.00
LXRβ
  pEC50: > 7.00

## COc1cc(C(=O)O)ccc1-c1cccc(-c2c(-c3ccccc3C#N)c3cc(F)ccc3n2S(=O)(=O)c2ccc(C(F)F)cc2)c1 [11/29]
[1]
  pEC50: > 7.00
LXRβ
  pEC50: > 7.00

## N#Cc1cc(C(=O)O)ccc1-c1cccc(-c2c(-c3ccccc3C#N)c3cc(F)ccc3n2S(=O)(=O)c2ccc(C(F)F)cc2)c1 [11/30]
[1]
  pEC50: > 7.00
LXRβ
  pEC50: > 7.00

## N#Cc1ccccc1-c1c(-c2cccc(-c3ccc(C(=O)O)cc3F)c2)n(S(=O)(=O)c2ccc(C(F)F)cc2)c2ccc(F)cc12 [11/31]
[1]
  pEC50: > 7.00
LXRβ
  pEC50: > 7.00

## N#Cc1ccccc1-c1c(-c2cccc(-c3ccc(C(=O)O)c(O)c3Cl)c2)n(S(=O)(=O)c2ccc(C(F)F)cc2)c2ccc(F)cc12 [11/32]
[1]
  pEC50: > 7.00
LXRβ
  pEC50: > 7.00

## N#Cc1cccc(F)c1-c1c(-c2cccc(-c3ccc(C(=O)O)cc3Cl)c2)n(S(=O)(=O)c2ccc(C(F)F)cc2)c2ccc(F)cc12 [11/34]
[1]
  pEC50: > 7.00
LXRβ
  pEC50: > 7.00

## Cc1cccc(C(F)F)c1-c1c(-c2cccc(-c3ccc(C(=O)O)cc3Cl)c2)n(S(=O)(=O)c2ccc(C(F)F)cc2)c2ccc(F)cc12 [11/38]
[1]
  pEC50: > 7.00
LXRβ
  pEC50: > 7.00

## COc1cccnc1-c1c(-c2cccc(-c3ccc(C(=O)O)cc3Cl)c2)n(S(=O)(=O)c2ccc(C(F)F)cc2)c2ccc(F)cc12 [11/40]
[1]
  pEC50: 6.00 to 7.00
LXRβ
  pEC50: > 7.00

## O=C(O)c1ccc(-c2cccc(-c3c(-c4ncccc4OC(F)F)c4cc(F)ccc4n3S(=O)(=O)c3ccc(C(F)F)cc3)c2)c(Cl)c1 [11/41]
[1]
  pEC50: > 7.00
LXRβ
  pEC50: > 7.00

## N#CC1=C(c2c(-c3cccc(-c4ccc(C(=O)O)cc4Cl)c3)n(S(=O)(=O)c3ccc(C(F)F)cc3)c3ccc(F)cc23)CCCC1 [11/42]
[1]
  pEC50: < 5.00
LXRβ
  pEC50: 6.00 to 7.00

## O=C(O)c1ccc(-c2cccc(-c3c(-c4cccc5nncn45)c4cc(F)ccc4n3S(=O)(=O)c3ccc(C(F)F)cc3)c2)c(Cl)c1 [11/43]
[1]
  pEC50: 6.00 to 7.00
LXRβ
  pEC50: 6.00 to 7.00

## O=C(O)c1ccc(-c2cccc(-c3c(-c4cccc5c4OCO5)c4cc(F)ccc4n3S(=O)(=O)c3ccc(C(F)F)cc3)c2)c(Cl)c1 [11/44]
[1]
  pEC50: > 7.00
LXRβ
  pEC50: > 7.00

## COc1cc(-c2c(-c3cccc(-c4ccc(C(=O)O)cc4Cl)c3)n(S(=O)(=O)c3ccc(C(F)F)cc3)c3ccc(F)cc23)c2c(C#N)cnn2c1 [11/46]
[1]
  pEC50: > 7.00
LXRβ
  pEC50: > 7.00

## Cn1cccc(-c2c(-c3cccc(-c4ccc(C(=O)O)cc4Cl)c3)n(S(=O)(=O)c3ccc(C(F)F)cc3)c3ccc(F)cc23)c1=O [11/47]
[1]
  pEC50: 6.00 to 7.00
LXRβ
  pEC50: 6.00 to 7.00

## N#Cc1cccc(C#N)c1-c1c(-c2cccc(-c3ccc(C(=O)O)c(F)c3F)c2)n(S(=O)(=O)c2ccc(C(F)F)cc2)c2ccc(F)cc12 [11/52]
[1]
  pEC50: > 7.00
LXRβ
  pEC50: > 7.00

## N#Cc1cccc(C#N)c1-c1c(-c2cccc(-c3c(F)c(F)c(C(=O)O)c(F)c3F)c2)n(S(=O)(=O)c2ccc(C(F)F)cc2)c2ccc(F)cc12 [11/54]
[1]
  pEC50: > 7.00
LXRβ
  pEC50: > 7.00

## N#Cc1cccc(C#N)c1-c1c(-c2cccc(-c3ccc(C(=O)O)cc3Cl)c2)n(S(=O)(=O)c2ccc(Cl)cc2)c2ccc(F)cc12 [11/55]
[1]
  pEC50: > 7.00
LXRβ
  pEC50: > 7.00

## N#Cc1cccc(C#N)c1-c1c(-c2cccc(-c3ccc(C(=O)O)cc3Cl)c2)n(S(=O)(=O)c2ccc(C(F)F)cc2)c2ccccc12 [11/56]
[1]
  pEC50: > 7.00
LXRβ
  pEC50: > 7.00

## N#Cc1sccc1-c1c(-c2cccc(-c3ccc(C(=O)O)cc3Cl)c2)n(S(=O)(=O)c2ccc(C(F)F)nc2)c2ccc(F)cc12 [11/57]
[1]
  pEC50: > 7.00
LXRβ
  pEC50: > 7.00

## N#Cc1cccc(C#N)c1-c1c(-c2cccc(C34CCC(C(=O)O)(CC3)CC4)c2)n(S(=O)(=O)c2ccc(C(F)F)cc2)c2ccc(F)cc12 [11/58]
[1]
  pEC50: > 7.00
LXRβ
  pEC50: > 7.00

## CC(O)(C(=O)O)c1ccc(-c2cccc(-c3c(-c4c(C#N)cccc4C#N)c4cc(F)ccc4n3S(=O)(=O)c3ccc(C(F)F)cc3)c2)cc1 (stereo not drawn) [11/59]
[1]
  pEC50: > 7.00
LXRβ
  pEC50: > 7.00

## N#Cc1cccc(C#N)c1-c1c(-c2cccc([C@H]3CC[C@@H](C(=O)O)CC3)c2)n(S(=O)(=O)c2ccc(C(F)F)cc2)c2ccc(F)cc12 [11/61]
[1]
  pEC50: 6.00 to 7.00
LXRβ
  pEC50: > 7.00

## N#Cc1cccc(C#N)c1-c1c(-c2cccc(-c3ccc(C(=O)O)cc3F)c2)n(S(=O)(=O)C2CCC(C(F)(F)F)CC2)c2ccc(F)cc12 (stereo not drawn) [11/64]
[1]
  pEC50: 6.00 to 7.00
LXRβ
  pEC50: > 7.00

## N#Cc1cccc(C#N)c1-c1c(-c2cccc(-c3ccc(C(=O)O)cc3Cl)c2)n(S(=O)(=O)C2CC3CCC2C3)c2ccc(F)cc12 (stereo not drawn) [11/66]
[1]
  pEC50: 6.00 to 7.00
LXRβ
  pEC50: > 7.00

## N#Cc1cncc(C#N)c1-c1c(-c2cccc(-c3ccc(C(=O)O)cc3Cl)c2)n(S(=O)(=O)c2ccc(C(F)F)cc2)c2ccc(F)cc12 [11/67]
[1]
  pEC50: 6.00 to 7.00
LXRβ
  pEC50: > 7.00

## Cn1ccc(-c2c(-c3cccc(-c4ccc(C(=O)O)cc4Cl)c3)n(S(=O)(=O)c3ccc(C(F)F)cc3)c3ccc(F)cc23)c1C#N [11/68]
[1]
  pEC50: > 7.00
LXRβ
  pEC50: > 7.00

## O=C(O)C1CC1c1cccc(-c2c(-c3c(Cl)cccc3Cl)c3cc(F)ccc3n2S(=O)(=O)c2ccc(C(F)F)cc2)c1 (stereo not drawn) [11/69]
[1]
  pEC50: > 7.00
LXRβ
  pEC50: > 7.00

## Cc1ccc(S(=O)(=O)n2c(-c3cccc(-c4ccc(C(=O)O)c(C)c4Cl)c3)c(-c3ccsc3C#N)c3cc(F)ccc32)cc1 [12/1]
[1]
  pEC50: 6.00 to 7.00
LXRβ
  pEC50: > 7.00
